Assay results published in patent publication US10238658B2, “1-pyrazolyl-3-(4-((2-anilinopyrimidin-4-yl) oxy) napththalen-1-yl) ureas as p38 MAP kinase inhibitors” (Respivert Limited, priority 2011, dated 2019).

Experiments:
CXCL1 (KC) = experiment: Cigarette smoke model: CXCL1 (KC) in BALF; type: in vivo, mouse; settings: mice
Protocol: A/J mice (males, 5 weeks old) were exposed to cigarette smoke (4% cigarette smoke, diluted with air) for 30 min/day for 11 days using a Tobacco Smoke Inhalation Experiment System for small animals (Model SIS-CS; Sibata Scientific Technology, Tokyo, Japan). Test substances were administered intra-nasally (35 μL of solution in 50% DMSO/PBS) once daily for 3 days after the final cigarette smoke exposure. At 12 hr after the last dosing, each of the animals was anesthetized, the trachea cannulated and bronchoalveolar lavage fluid (BALF) was collected. The numbers of alveolar macrophages and neutrophils were determined by FACS analysis (EPICS® ALTRA II, Beckman Coulter, Inc., Fullerton, Calif., USA) using anti-mouse MOMA2 antibody (macrophage) or anti-mouse 7/4 antibody (neutrophil). BALF was centrifuged and the supernatant was collected. The level of keratinocyte chemoattractant (KC; CXCL1) in BALF was quantitated using a Quentikine® mouse KC ELISA kit (R&D systems, Inc., Minneapolis, Minn., USA).

TNFα = experiment: LPS-stimulated TNFα production in sputum macrophages from COPD; type: cell-based; settings: Homo sapiens, Macrophage
Protocol: (§1) Patients with COPD were inhaled with a nebulised solution of 3% (w/v) hypertonic saline using an ultrasonic nebuliser (Devilbiss, Carthage, Mo.) with tidal breathing for 5 min. This procedure was repeated a maximum of three times until enough sputum was obtained. The sputum samples were homogenized and mixed vigorously using a vortex mixer in 0.02% v/v dithiothreitol (DTT) solution. The samples were re-suspended in PBS (40 mL) followed by centrifugation at 1500 rpm at 4° C. for 10 min to obtain sputum cell pellets. The pellets were washed twice with PBS (40 mL). The sputum cells were then re-suspended in macrophage serum-free medium (macrophage-SFM, Life technologies, Paisley, UK; to achieve 2×10^6/well in a 24 well plate) containing 20 U/mL penicillin, 0.02 mg/mL streptomycin and 5 μg/mL amphotericin B and seeded on high bound 96-well plate, followed by incubation for 2 hr at 37° C. and at 5% CO2 to allow the macrophages to attach to the bottom of the plate. The cells on the plate were washed with fresh macrophage-SFM (200 μL/well) to remove neutrophils and other contaminated cells. The adherent cells (mainly sputum macrophages) on the plate were used for further analysis. Sputum induction and isolation were conducted in Quintiles Drug Research Unit at Guys Hospital and ethics approval and written informed consent was obtained by Quintiles.
(§2) Where appropriate, 1 μL of a solution containing either the test compound or reference article at the stated concentrations or alternatively 1 μL of DMSO as the vehicle control was added to each well (200 μL in media) and the cells were incubated for 2 hr. […] After washing with 200 uL wash buffer per well, the beads were resuspended in sheath fluid (150 μL) and analyzed immediately. The level of each analyte in the supernatant was calculated using Xcel Fit software with a 4 or 5-parameter equation using each standard curve. The inhibitions of each cytokine production were calculated at each concentration by comparison with vehicle control. The IC50 values were determined from concentration-inhibition curves using XL-Fit (idbs, Guildford, UK)

IL-8 [1] = experiment: LPS-stimulated IL-8 production in sputum macrophages from COPD; type: cell-based; settings: Homo sapiens, Macrophage
Protocol: as §1, §2

IL-8 [2] = experiment: LPS-induced IL-8 release in d-U937 cells; type: cell-based; settings: Homo sapiens, dU937, dU937 cells
How it was run: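 U937 cells differentiated with PMA (100 ng/mL, 48–72 hr) were pre-incubated with compound for 2 hr, then stimulated with E. coli O111:B4 LPS (0.1 μg/mL) for 4 hr. Supernatant cytokine measured by sandwich ELISA; inhibition vs vehicle control at each concentration, REC50 taken from the concentration-response curve.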

SMILES	cigarette smoke induced CXCL1 (KC) production in BALF, effect in words (CXCL1 (KC))	IC50 (TNFα; COPD patients, LPS)	Emax at 0.1 µg/mL (TNFα; read-out: TNFα E max, sputum macrophage)	IC50 (IL-8 [1]; COPD patients, LPS)	Emax at 0.1 µg/mL (IL-8 [1]; read-out: IL-8 E max, sputum macrophage)	IC50 (IL-8 [2])
Cc1ccc(-n2nc(C(C)(C)C)cc2NC(=O)Nc2ccc(Oc3ccnc(Nc4ccccc4)n3)c3ccccc23)cc1 [Example 1, 1-(3-(tert-Butyl)-1-(p-tolyl)-1H-pyrazol-5-yl)-3-(4-(2-(phenylamino)pyrimidin-4-yloxy)naphthalen-1-yl)urea]	inhibited	17 nM	86%	68 nM	64%	–
Cc1ccc(-n2nc(C(C)(C)C)cc2NC(=O)Nc2ccc(Oc3ccnc(Nc4cccc(O)c4)n3)c3ccccc23)cc1 [Example 2, 1-(3-(tert-Butyl)-1-(p-tolyl)-1H-pyrazol-5-yl)-3-(4-((2-((3-hydroxyphenyl)amino)pyrimidin-4-yl)oxy)naphthalen-1-yl)urea]	–	–	–	–	–	2.7 nM
